# Where a name gives a salt, the structure may show the parent alone.
# Target: T1, protein farnesyltransferase (Rattus norvegicus, UniProt Q02293+Q04631)
# T1 construct: The enzyme is purified according to Reiss, Y., et al., Cell, 62: 81-88 (1990), utilizing steps one through three; from tissue; host or cells: rat brain
# Assay: Inhibition of farnesyltransferase (scintillation proximity assay, rat brain enzyme, biotin-K Ras B fragment substrate)
# Format: biochemical
# Conditions: for % inhibition of farnesyltransferase at 1 × 10^-5 M: 1 × 10^-5 M (Table 1); for % inhibition of farnesyltransferase at 1 × 10^-6 M / inhibition at 1 µM: 1 × 10^-6 M (Table 2); for % inhibition of farnesyltransferase at 1 × 10^-7 M / inhibition at 0.1 µM: 1 × 10^-7 M (Table 3); for inhibition at 1 µM: read-out: % inhibition of farnesyltransferase at 1 × 10^-6 M; for inhibition at 0.1 µM: read-out: % inhibition of farnesyltransferase at 1 × 10^-7 M
# Source text: The ability of the compounds of the invention to inhibit protein farnesyltransferase or protein geranylgeranyltransferase can be measured according to the method of Moores, et al., J. Biol. Chem. 266: 14603 (1991) or the method of Vogt, et al., J. Biol. Chem. 270:660-664 (1995). In addition, procedures for determination of the inhibition of farnesylation of the oncogene protein Ras are described by Goldstein, et al., J. Biol. Chem., 266:15575-15578 (1991) and by Singh in U.S. Pat. No. 5,245,061.
# In addition, in vitro inhibition of protein farnesyltransferase may be measured by the following procedure. Rat brain protein farnesyltransferase activity is measured using an Amersham Life Science commercial scintillation proximity assay kit and substituting a biotin-K Ras B fragment (biotin-[…]Ble-Met-CO2 H), […] final concentration, for the biotin-lamin substrate provided by Amersham. The enzyme is purified according to Reiss, Y., et al., Cell, 62: 81-88 (1990), utilizing steps one through three.
# The % inhibition of protein farnesyltransferase was determined for representative compounds of the invention.
# T1 sequence (Q02293 whole entry, one chain of several): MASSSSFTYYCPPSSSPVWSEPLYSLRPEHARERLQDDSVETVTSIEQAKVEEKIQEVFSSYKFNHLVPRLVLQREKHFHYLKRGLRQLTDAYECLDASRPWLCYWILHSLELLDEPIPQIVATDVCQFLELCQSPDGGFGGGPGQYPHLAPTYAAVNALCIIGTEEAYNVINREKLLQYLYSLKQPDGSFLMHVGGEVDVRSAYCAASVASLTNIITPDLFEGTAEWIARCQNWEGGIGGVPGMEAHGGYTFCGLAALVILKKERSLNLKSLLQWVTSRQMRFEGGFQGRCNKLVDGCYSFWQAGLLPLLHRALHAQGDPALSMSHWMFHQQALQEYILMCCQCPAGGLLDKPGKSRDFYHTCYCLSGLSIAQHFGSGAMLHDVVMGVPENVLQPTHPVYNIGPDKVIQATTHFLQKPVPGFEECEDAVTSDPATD
compound,measurement,value
CCn1cc(NCc2ccc(C(=O)N[C@@H](CCSC)C(=O)O)c(-c3ccccc3)c2)c(=O)n1CC [Example 364],% inhibition of farnesyltransferase at 1 × 10^-5 M,69%
CSCC[C@H](NC(=O)c1ccc(CNCCN2CCOCC2)cc1-c1ccccc1)C(=O)O [Example 365],% inhibition of farnesyltransferase at 1 × 10^-5 M,97%
CSCC[C@H](NC(=O)c1ccc(CNCCN2CCCCC2)cc1-c1ccccc1)C(=O)O [Example 366],% inhibition of farnesyltransferase at 1 × 10^-5 M,83%
CSCC[C@H](NC(=O)c1ccc(CNCCc2cccs2)cc1-c1ccccc1)C(=O)O [Example 369],% inhibition of farnesyltransferase at 1 × 10^-5 M,87%
CSCC[C@H](NC(=O)c1ccc(CNc2cc[nH]n2)cc1-c1ccccc1)C(=O)O [Example 370],% inhibition of farnesyltransferase at 1 × 10^-5 M,86%
CSCC[C@H](NC(=O)c1ccc(CNc2nnc(C)s2)cc1-c1ccccc1)C(=O)O [Example 371],% inhibition of farnesyltransferase at 1 × 10^-5 M,66%
CSCC[C@H](NC(=O)c1ccc(CNc2cc(C)on2)cc1-c1ccccc1)C(=O)O [Example 372],% inhibition of farnesyltransferase at 1 × 10^-5 M,69%
CSCC[C@H](NC(=O)c1ccc(CNc2cc(C)ns2)cc1-c1ccccc1)C(=O)O [Example 373],% inhibition of farnesyltransferase at 1 × 10^-5 M,76%
CSCC[C@H](NC(=O)c1ccc(CNc2nccs2)cc1-c1ccccc1)C(=O)O [Example 374],% inhibition of farnesyltransferase at 1 × 10^-5 M,61%
CSCC[C@H](NC(=O)c1ccc(CNCCCN2CCOCC2)cc1-c1ccccc1)C(=O)O [Example 377],% inhibition of farnesyltransferase at 1 × 10^-5 M,71%
CSCC[C@H](NC(=O)c1ccc(CNc2cc(C(C)(C)C)[nH]n2)cc1-c1ccccc1)C(=O)O [Example 381],% inhibition of farnesyltransferase at 1 × 10^-5 M,79%
CCSC[C@H](CC1CCCCC1)NCc1ccc(C(=O)N[C@@H](CCSC)C(=O)O)c(-c2ccccc2C)c1 [Example 403],% inhibition of farnesyltransferase at 1 × 10^-6 M,99%
CSCC[C@H](NC(=O)c1ccc(COCCC23CC4CC(CC(C4)C2)C3)cc1-c1ccccc1C)C(=O)O [Example 404],% inhibition of farnesyltransferase at 1 × 10^-6 M,98%
CSCC[C@H](NC(=O)c1ccc(COCCCC2CCCCC2)cc1-c1ccccc1C)C(=O)O [Example 405],% inhibition of farnesyltransferase at 1 × 10^-6 M,98%
CSCC[C@H](NC(=O)c1ccc(CN(Cc2ccccc2)c2ccccc2)cc1-c1ccccc1C)C(=O)O [Example 406],% inhibition of farnesyltransferase at 1 × 10^-6 M,95%
CSCC[C@H](NC(=O)c1ccc(COCc2ccc(Br)o2)cc1-c1ccccc1C)C(=O)[O-].[Li+] [Example 434],% inhibition of farnesyltransferase at 1 × 10^-7 M,93%
CSCC[C@H](NC(=O)c1ccc(COCc2ccc(CN(C)C)o2)cc1-c1ccccc1C)C(=O)O [Example 435],% inhibition of farnesyltransferase at 1 × 10^-6 M,96%
CSCC[C@H](NC(=O)c1ccc(COCc2ccc(-c3cccc(F)c3)o2)cc1-c1ccccc1C)C(=O)[O-].[Li+] [Example 436],% inhibition of farnesyltransferase at 1 × 10^-7 M,89%
CSCC[C@H](NC(=O)c1ccc(COCc2ccc(-c3ccccc3F)o2)cc1-c1ccccc1C)C(=O)[O-].[Li+] [Example 437],% inhibition of farnesyltransferase at 1 × 10^-7 M,89%
CSCC[C@H](NC(=O)c1ccc(COCc2ccc(-c3ccccc3C(F)(F)F)o2)cc1-c1ccccc1C)C(=O)[O-].[Li+] [Example 438],% inhibition of farnesyltransferase at 1 × 10^-7 M,90%
CSCC[C@H](NC(=O)c1ccc(COCc2ccc(-c3cccc([N+](=O)[O-])c3)o2)cc1-c1ccccc1C)C(=O)[O-].[Li+] [Example 440],% inhibition of farnesyltransferase at 1 × 10^-7 M,92%
CSCC[C@H](NC(=O)c1ccc(COCc2ccc(-c3cccc(C(F)(F)F)c3)o2)cc1-c1ccccc1C)C(=O)[O-].[Li+] [Example 441],% inhibition of farnesyltransferase at 1 × 10^-7 M,91%
COc1cccc(-c2ccc(COCc3ccc(C(=O)N[C@@H](CCSC)C(=O)[O-])c(-c4ccccc4C)c3)o2)c1.[Li+] [Example 442],% inhibition of farnesyltransferase at 1 × 10^-7 M,88%
CSCC[C@H](NC(=O)c1ccc(COCc2ccc(-c3ccc(Cl)cc3)o2)cc1-c1ccccc1C)C(=O)O [Example 443],% inhibition of farnesyltransferase at 1 × 10^-7 M,97%
CSCC[C@H](NC(=O)c1ccc(COCc2ccc(-c3ccc(C(F)(F)F)cc3)o2)cc1-c1ccccc1C)C(=O)[O-].[Li+] [Example 445],% inhibition of farnesyltransferase at 1 × 10^-7 M,94%
COc1ccc(-c2ccc(COCc3ccc(C(=O)N[C@@H](CCSC)C(=O)[O-])c(-c4ccccc4C)c3)o2)cc1.[Li+] [Example 446],% inhibition of farnesyltransferase at 1 × 10^-7 M,91%
CSCC[C@H](NC(=O)c1ccc(COCc2ccc(-c3ccc(SC)cc3)o2)cc1-c1ccccc1C)C(=O)[O-].[Li+] [Example 447],% inhibition of farnesyltransferase at 1 × 10^-7 M,91%
CSCC[C@H](NC(=O)c1ccc(COCc2ccc(-c3ccc(C=O)cc3)o2)cc1-c1ccccc1C)C(=O)[O-].[Li+] [Example 448],% inhibition of farnesyltransferase at 1 × 10^-7 M,92%
CSCC[C@H](NC(=O)c1ccc(COCc2ccc(-c3ccc(C(C)=O)cc3)o2)cc1-c1ccccc1C)C(=O)[O-].[Li+] [Example 449],% inhibition of farnesyltransferase at 1 × 10^-7 M,91%
"CSCC[C@H](NC(=O)c1ccc(CCc2ccccc2-c2ccccc2)cc1-c1ccccc1C)C(=O)O [Example 452, N-[4-(2-(2-phenylphenyl)ethyl)-2-(2-methylphenyl)benzoyl]methionine lithium salt]",inhibition at 1 µM,96%
"CSCC[C@H](NC(=O)c1ccc(C=Cc2ccccc2Oc2ccccc2)cc1-c1ccccc1C)C(=O)O [Example 453, N-[4-(2-(2-phenoxyphenyl)ethen-1-yl)-2-(2-methylphenyl)benzoyl]methionine lithium salt]",inhibition at 1 µM,90%
"CSCC[C@H](NC(=O)c1ccc(CCc2ccccc2Oc2ccccc2)cc1-c1ccccc1C)C(=O)O [Example 455, N-[4-(2-(2-phenoxyphenyl)ethyl)-2-(2-methylphenyl)benzoyl]methionine lithium salt]",inhibition at 0.1 µM,83%
"Cc1ccccc1-c1cc(CCc2ccccc2Oc2ccccc2)ccc1C(=O)N[C@@H](CC[S+](C)[O-])C(=O)O (some centres unmarked) [Example 456, N-[4-(2-(2-phenoxyphenyl)ethyl)-2-(2-methylphenyl)benzoyl]-2-amino-4-methylsulfinylbutanoic acid lithium salt]",inhibition at 1 µM,81%
"CSCC[C@H](NC(=O)c1ccc(C=Cc2ccccc2Cc2ccccc2)cc1-c1ccccc1C)C(=O)O [Example 457, N-[4-(2-(2-benzylphenyl)ethenyl)-2-(2-methylphenyl)benzoyl]methionine lithium salt]",inhibition at 1 µM,92%
"CSCC[C@H](NC(=O)c1ccc(CCc2ccccc2Cc2ccccc2)cc1-c1ccccc1C)C(=O)O [Example 458, lithium salt]",inhibition at 0.1 µM,87%
"CSCC[C@H](NC(=O)c1ccc(CCc2cccc(Oc3ccccc3)c2)cc1-c1ccccc1C)C(=O)O [Example 459, N-[4-(2-(3-phenoxyphenyl)ethyl)-2-(2-methylphenyl)benzoyl]methionine lithium salt]",inhibition at 0.1 µM,92%
"Cc1ccccc1-c1cc(CCc2cccc(Oc3ccccc3)c2)ccc1C(=O)N[C@@H](CC[S+](C)[O-])C(=O)O (some centres unmarked) [Example 460, N-[4-(2-(3-phenoxyphenyl)ethyl)-2-(2-methylphenyl)benzoyl]-2-amino-4-methylsulfinylbutanoic acid lithium salt]",inhibition at 1 µM,88%
"CSCC[C@H](NC(=O)c1ccc(CCc2ccc(C3CCCCC3)cc2)cc1-c1ccccc1C)C(=O)O [Example 461, N-[4-(2-(4-cyclohexylphenyl)ethyl)-2-(2-methylphenyl)benzoyl]methionine lithium salt]",inhibition at 0.1 µM,93%

# — patent US6221865A, “Inhibitors of protein isoprenyl transferases” (priority 1998, dated 2001)
